From patent US6753338B2, “Methods for treating hypertension, angina, and congestive heart failure using of optically pure (-) amlodipine” (Sepracor Inc., priority 1991, dated 2004)

test system: K+-depolarized isolated guinea pig ileal segment; assay: Calcium antagonism, guinea pig ileum (in vitro); details: Cavia porcellus; reference agents; K+-depolarized ileal segment in Ca-free physiological salt solution, 37° C., added calcium 20 μg/ml CaCl; read-out: ED100 (inhibition of contractile response to added calcium)
From the text: Calcium Antagonism, Guinea Pig Ileum (in Vitro):

SMILES	IC100
CN1CCC(=C2c3ccccc3C=Cc3ccccc32)CC1 [cyproheptadine]	0.025 µg/mL
COc1ccc([C@@H]2Sc3ccccc3N(CCN(C)C)C(=O)[C@@H]2OC(C)=O)cc1 [diltiazem]	0.01 µg/mL
CN(C)CCOC(c1ccccc1)c1ccccc1 [diphenhydramine]	1 µg/mL
Fc1ccc(C(c2ccc(F)cc2)N2CCN(C/C=C/c3ccccc3)CC2)cc1 [flunarizine]	0.1 µg/mL
COc1ccc(CN(CCN(C)C)c2ccccn2)cc1 [mepyramine]	> 5 µg/mL
COc1ccc(Cc2nccc3cc(OC)c(OC)cc23)cc1OC [papaverine]	4 µg/mL
CC(CN1c2ccccc2Sc2ccccc21)N(C)C (stereo not shown) [promethazine]	0.25 µg/mL
CC(C)NCC(O)COc1cccc2ccccc12 (stereo not shown) [propranolol]	4 µg/mL

same assay, conditions: reference agents; K+-depolarized ileal segment in Ca-free physiological salt solution, 37° C., added calcium 20 μg/ml CaCl

SMILES	ED100 (inhibition of contractile response to added calcium)
C(=C\c1ccccc1)/CN1CCN(C(c2ccccc2)c2ccccc2)CC1 [cinnazrizine]	1 µg/mL
CC(C)[N+]1(C)[C@@H]2CC[C@H]1CC(OC(=O)C(CO)c1ccccc1)C2.[Br-] (stereo partly shown) [ipratropium bromide]	> 2 µg/mL
CC(COc1ccccc1)NC(C)C(O)c1ccc(O)cc1 (stereo not shown) [isoxuprine]	4 µg/mL

test system: β-adrenergic; assay: not given; details: L-form versus D-enantiomer; cited from earlier work

SMILES	potency relative to the D-enantiomer
CC(C)NC[C@H](O)COc1cccc2ccccc12	100 times

test system: potassium-depolarized rat aorta; assay: not given; details: in vitro; cited from earlier work

SMILES	activity relative to the racemic mixture in antagonizing calcium-induced constriction
CCOC(=O)C1=C(COCCN)NC(C)=C(C(=O)OC)C1c1ccccc1Cl (single isomer, unassigned; isomer 3) [(−) isomer, 3-ethyl 5-methyl (−)-2-[2-aminoethoxy)methyl]-4-(2-chlorophenyl)-1,4-dihydro-6-methyl-3,5-pyridine dicarboxylate]	twice as active as the racemic mixture
